Source: PMC8466373, “Plant-Derived and Dietary Hydroxybenzoic Acids—A Comprehensive Study of Structural, Anti-/Pro-Oxidant, Lipophilic, Antimicrobial, and Cytotoxic Activity in MDA-MB-231 and MCF-7 Cell Lines” (Nutrients, 2021)
In brackets after ≈: the same amount, converted by molar mass. Where two headings read alike, the source gives them in different places. Marks after values point to notes of the source that are not given here.

Legend:
[1] = tested on: Salmonella enteritidis (NCTC 4776); assay: MIC by serial dilution in agar medium; format: cell-based; details: Salmonella enterica; Salmonella enteritidis; read-out: MIC
Protocol: (§1) The following bacterial strains were used in this study: Escherichia coli (PCM 2857), Pseudomonas aeruginosa (PCM 2720), Bacillus subtilis (PCM 2850), Staphylococcus aureus (PCM 2267), Salmonella enteritidis (NCTC 4776), and Candida albicans (PCM 2566-FY). The microbial strains were bought from the Polish Collection of Microorganisms (Wroclaw, Poland) or the American Type Culture Collection.
(§2) The MIC (minimal inhibitory concentration) was determined by serial dilution of the tested compound in an agar medium, to which the appropriate inoculum of microorganisms was then added and incubated. Escherichia coli, Pseudomonas aeruginosa, Staphylococcus aureus, Bacillus subtilis, Salmonella enteritidis, and Candida albicans were grown overnight and then resuspended in physiological saline to an optical density at 600 nm (OD = 600) of 0.60, corresponding to 5.0 × 10^8 CFU/mL. Bacteria (0.1 mL of the reconstituted suspension) were seeded onto sterile Mueller–Hinton agar plates, to which previously suitable amounts of the tested compounds were added to reach the desired concentration. Tested chemicals were dissolved in DMSO solution. Negative controls were agar plates, to which DMSO was added, while positive controls were plates with gentamycin (in the case of bacteria) or flucanozole (in the case of fungi). The plates were incubated at 37 °C for 24 h. The lowest concentration without visible bacterial growth was determined as the MIC.

[2] = tested on: Pseudomonas aeruginosa (PCM 2720); assay: MIC by serial dilution in agar medium; format: cell-based; details: read-out: MIC
Protocol: as §1, with “Collection. Bacteria (0.1 mL of the reconstituted suspension) were seeded onto sterile Mueller–Hinton agar plates (Biomaxima), to which previously suitable amounts of the tested compounds were added to give the desired concentration.” for “Collection.”
as §2

[3] = tested on: Candida albicans (PCM 2566-FY); assay: MIC by serial dilution in agar medium; format: cell-based; details: read-out: MIC
Protocol: as §1, with “Collection. Bacteria (0.1 mL of the reconstituted suspension) were seeded onto sterile Mueller–Hinton agar plates (Biomaxima), to which previously suitable amounts of the tested compounds were added to give the desired concentration.” for “Collection.”
as §2

[4] = tested on: Staphylococcus aureus (PCM 2267); assay: MIC by serial dilution in agar medium; format: cell-based; details: read-out: MIC
Protocol: as §1, with “Collection. Bacteria (0.1 mL of the reconstituted suspension) were seeded onto sterile Mueller–Hinton agar plates (Biomaxima), to which previously suitable amounts of the tested compounds were added to give the desired concentration.” for “Collection.”
as §2

[5] = tested on: Bacillus subtilis (PCM 2850); assay: MIC by serial dilution in agar medium; format: cell-based; details: read-out: MIC
Protocol: as §1, with “Collection. Bacteria (0.1 mL of the reconstituted suspension) were seeded onto sterile Mueller–Hinton agar plates (Biomaxima), to which previously suitable amounts of the tested compounds were added to give the desired concentration.” for “Collection.”
as §2

[6] = tested on: Escherichia coli (PCM 2857); assay: MIC by serial dilution in agar medium; format: cell-based; details: read-out: MIC
Protocol: as §1, with “Collection. Bacteria (0.1 mL of the reconstituted suspension) were seeded onto sterile Mueller–Hinton agar plates (Biomaxima), to which previously suitable amounts of the tested compounds were added to give the desired concentration.” for “Collection.”
as §2

[7] = ABTS assay; format: biochemical; details: 50 μM, methanolic solutions, 7 min of reaction time
Protocol: ABTS assay was conducted according to the procedure of Re et al.. […] The absorbance of the solutions was measured with a UV–Vis spectrophotometer at 734 nm against methanol (the blank). The ability to scavenge ABTS^•+ cation radicals was expressed as the %I of ABTS^•+ and calculated according to the aforementioned equation.

[8] = FRAP assay (ferric-reducing antioxidant power); format: biochemical; set-up: key: (-): Negative values were obtained for these acids; details: concentration of 50 μM, methanolic solutions
Protocol: FRAP assay was carried out as described in [42]. […] After 8 min of incubation at 23 °C, the absorbance at 595 nm was measured against the blank (containing 0.4 mL of methanol instead of the sample). Ferric-reducing antioxidant activity was expressed as Fe(II) ion equivalents (μM) using the calibration curve obtained for FeSO4 (the standard curve equation: y = 3.4303x − 0.1058; R^2 = 0.9984).

[9] = CABTS = 7 mM, t = 6 min, ref 73; read-out: ABTS, IC50; cited from earlier work
[10] = Lipophilicity via RP-HPLC; format: physicochemical
Protocol: The analyses were carried out on the following chromatographic columns: RP-18e Purospher STAR (C18), 150 mm × 4.0 mm, 5 µm, (Merck, Darmstadt, Germany); RP-8e Purospher STAR (C8), 150 mm × 4.6 mm, 5 µm, (Merck, Darmstadt, Germany); Zorbax Eclipse XDB-CN (CN), 150 mm × 4.6 mm, 5 µm, (Agilent Technologies, Santa Clara, CA, USA); Nucleosil Phenyl (PHE), 250 mm × 4.6 mm, 7 µm, (Supelco, Bellefonte, PA, USA); and Regis Rexchrom IAM.PC.DD.2 (IAM), 100 mm × 4.6 mm, 10 µm, (Regis Technologies Inc., Morton Grave, IL, USA). The experimental conditions and the calculations were as described in [46].

[11] = ref 102; cited from earlier work
[12] = C = 0,001 mg/mL, λ = 593 nm, t = 30 min; cited from earlier work
[13] = tested on: E. coli, P. aeruginosa, S. aureus, B. subtilis, S. enteritidis, and C. albicans; assay: MIC, stated for all tested strains together; format: cell-based; details: all of the tested strains
Protocol: as §1, with “Collection. Bacteria (0.1 mL of the reconstituted suspension) were seeded onto sterile Mueller–Hinton agar plates (Biomaxima), to which previously suitable amounts of the tested compounds were added to give the desired concentration.” for “Collection.”
as §2

[14] = cited from earlier work
[15] = Cytotoxicity, neutral red (NR) assay; format: cell-based, human; details: human, 48 h treatment, neutral red assay
Protocol: Briefly, MCF-7 cells were cultured in EMEM (Biological Industries, Israel) medium supplemented with 10% fetal calf serum (Gibco). MDA-MB-231 cells were cultured in Leibovitz‘s L15 (Biological Industries, Beit HaEmek, Israel) medium supplemented with 10% fetal calf serum (Gibco). The MCF-7 cells were incubated in a 5% CO2 atmosphere at 37 °C, whereas the MDA-231 cells were incubated in a 100% air atmosphere at 37 °C.
Cytotoxicity evaluation was conducted to assess the impact of hydroxybenzoic acids on the proliferation of MCF-7 and MDA-MB-231 cells, which was measured via neutral red (NR) assay. In brief, cells were seeded in 96-well microplates (TPP, Switzerland) at a density of 2 × 10^4 cells/well in 100 μL of culture medium. At least three independent experiments in six replicate wells were conducted per concentration. Twenty-four hours after cell seeding, cells were treated with increasing concentrations of hydroxybenzoic acids (0.02–5 mM) for forty-eight hours. After treatment, cells were incubated for 3 h at 37 °C with 100 µL of neutral red solution (stock solution of NR) (Sigma-Aldrich), and then 5 mg/mL of PBS was diluted 1:100 in cell culture medium, incubated for 12 h at 37 °C, and centrifuged to remove any undissolved NR powder. […] After 15 min of gentle shaking, optical density was read at 540 nm with an Infinite M200 plate reader spectrophotometer (Tecan, Austria).

Work on O=C(O)c1ccc(O)cc1O [2,4-DHB, 2,4-Dihydroxybenzoic acid] yielded an MIC [1] of 2000 µg/mL (≈ 13 mM), an MIC [2] of 2000 µg/mL (≈ 13 mM) and an MIC [3] of 2000 µg/mL (≈ 13 mM). For the same compound, the MIC [4] was 2000 µg/mL (≈ 13 mM), the MIC [5] was 2000 µg/mL (≈ 13 mM) and the MIC [6] was 2000 µg/mL (≈ 13 mM). For the same compound, the “Inhibition of ABTS•+ radicals (%I)” value [7] was 16.17%, the FRAP [8] was “(-) *” and the IC50 [9] was 0.169 mM. For the same compound, the log kw ([10]; C8 column) was 1.81, the ϕ0 ([10]; C8 column) was 1.38 and the log kw ([10]; C18 column) was 2.66. It also gave a ϕ0 ([10]; C18 column) of 0.57, a log kw ([10]; CN column) of 2.06 and a ϕ0 ([10]; CN column) of 1.15. It also gave a log kw ([10]; IAM column) of 1.14, a ϕ0 ([10]; IAM column) of 1.00 and a log kw ([10]; PHE column) of 1.39. The ϕ0 ([10]; PHE column) was 1.05, the LogPexp. [11] was 1.63 [102] and the FRAP [12] was “≈ 0.012 (C = 0,001 mg/mL), λ = 593 nm, t = 30 min) [73] μM Fe^2+”. For the same compound, the MIC [13] was 2000 µg/mL (≈ 13 mM), the pKaexp. ([14]; at 25 °C) was 3.11 and the pKaexp. ([14]; ref 104) was 3.11. The pKaexp. ([14]; ref 105) was 3.1, the IC50 at 48 h ([15]; read-out: Cytotoxicity (mM) in Cell Line MCF-7, IC50) was greater than 5 mM and the IC50 at 48 h ([15]; read-out: Cytotoxicity (mM) in Cell Line MDA-MB-231, IC50) was 4.77 mM.
